In brackets after ≈: the same amount, converted by molar mass. Read-outs that look alike come from different tables or passages of the source. Numbered stars: 1 amine (or outer) side, 2 acyl side, 3 side chain; on linkers, the order of the positions; unused ones are H or OH. Bridge positions count the residues as written; N and C are the ends. Square brackets hold non-standard residues; d marks the D form. Peptide text beside a SMILES is read from it. * marks the point of attachment. Phe(3-Me) = Cc1cccc(C[C@H](N)C(=O)O)c1; Pro(4S-Me) = C[C@@H]1CN[C@H](C(=O)O)C1; Pro(4R-Me) = C[C@H]1CN[C@H](C(=O)O)C1; Hyp = O=C(O)[C@@H]1C[C@@H](O)CN1; NH(3-Cl-phenyl) = Clc1cccc(N*)c1; aThr = C[C@H](O)[C@H](N)C(=O)O; Pip = O=C(O)[C@@H]1CCCCN1; CO = O=C([*:1])[*:2]; X2 = Fc1cc(N*)ccc1Cl
Assays:
S. aureus ClpP (Sa-ClpP) = molecular target: T1, S. aureus ClpP (Sa-ClpP) (Staphylococcus aureus, UniProt Q2G036); experiment: Casein-BODIPY digestion assay (ClpP activation); type: biochemical
T1 construct: made in house; host or cells: E. coli BL21 (DE3)
Protocol: The compounds were assayed in a casein digestion assay in order to determine their effect on ClpP activation. Briefly, the assay was carried out using S. aureus ClpP (“Sa-ClpP”) overexpressed in E. coli BL21 (DE3) and purified in a two-step process. Purity of the protein was assessed through SDS PAGE analysis. EC50 evaluations were conducted in triplicate in a 20 μl assay format using a method adapted from Maurizi et al. (Methods Enzymol. (1994) 244:314-331). Each well contained 10 μM saClpP, 25 μg/ml BODIPY FL casein (Invitrogen Corporation, San Diego, Calif.), and test compound in concentrations ranging between 0-1000 μM in assay buffer (50 mM Tris pH 8, 200 mM KCl, and 1 mM TCEP). The reaction took place at 37° C. Fluorescence (excitation 485 nm; emission 528 nm) was measured in five minute intervals over a 45 min period using a BioTek HT fluorescence microplate reader (BioTek Instruments, Inc., Winooski, Vt.). Velocity of each reaction was calculated and data was fit to a dose response curve using GraphPad Prism® software (GraphPad Software, Inc., La Jolla, Calif.). EC50 is the effective concentration of compound which causes 50% activation of S. aureus ClpP in the foregoing BODIPY FL casein assay.
Alternatively, the assay was carried out using EnzCheck Protease Assay (Molecular Probes, Catalog # E6638). The assay was performed in black 384 well, flat bottom, low volume plates (Greiner Bio-One, Monroe, N.C., catalog #784076). 10 μL of Tris.HCl buffer, pH 8.0 with 0.01% Triton X-100 was pipetted into each well using a Well-Mate (Thermo Scientific, Waltham, Mass.). 0.4 μL test compounds or controls (2% DMSO v/v) were added to each well using a Biomek FX liquid handling robot (Beckman Coulter, Indianapolis, Ind.). After addition of test compounds and controls, 10 μL of master mix containing 2 μM Sa-ClpP and 2 μM substrate (Bodipy-FL labeled casein) in Tris.HCl buffer, pH 8.0 with 0.01% (v/v) Triton X-100, was pipetted into each well. All assays were performed in triplicate, under linear velocity conditions. Increase in fluorescent signal following activation of Sa-ClpP by test compounds and controls was measured over time period of 30 mins using filters with excitation at 485±15 nm and emission at 520±25 nm on a PHERAstar FS Multilabel reader (BMG, Cary, N.C.). Instrument gains and enzyme linear velocity conditions were determined and validated using ADEP4, a known Sa-ClpP activator. Data analysis was done by measuring rate of casein degradation over time (slopes). Computed degradation rates (slopes) were normalized to positive (ADEP4) or negative (DMSO) controls. Using nonlinear regression curve fitting EC50 values and % activation were determined using the equation “log [agonist] vs. Response-variable slope (four parameters)-symmetrical” in the program Prism 6 (GraphPad Software, La Jolla, Calif. USA, www.graphpad.com).

S. aureus ΔClpP = experiment: Minimal inhibitory concentration, microbroth dilution; type: cell-based, Staphylococcus aureus; settings: MIC; ClpP inactivated
Protocol: (§1) Minimal inhibitory concentrations (“MICs”) were determined using the microbroth dilution method according to Clinical Laboratory Standards Institute (CLSI; National, C.F. C. L. S., Methods for Dilution Antimicrobial Susceptibility Tests for Bacteria Grow aerobically-Seventh Edition: Approved Standard M7-A7, CLSI, Wayne, Pa., USA, 2008) and were read by visual inspection. Two fold serial dilutions of test compound in 100 μL of the appropriate broth media were first prepared in 96-well round bottom microtiter plates (Nalgene Nunc International, Rochester, N.Y., USA). An equivalent volume (100 μL) of bacterial broth inocula containing approximately 10^5 bacterial cfu/mL was added to each well to give final concentrations of test compound starting at 200 μM. The plates were then incubated aerobically at 37° C. All strains were incubated overnight. After incubations, in all cases the MIC was recorded as the lowest concentration of drug that prevented bacterial growth. The bacterial strains for which MIC was determined as described in Table 4.

E. faecails = experiment: as above; type: cell-based; settings: Enterococcus faecalis
Protocol: as §1

MRSA NRS70 = experiment: as above; type: cell-based; settings: Staphylococcus aureus
Protocol: as §1

S. aureus ATCC 29213 = experiment: as above; type: cell-based; settings: Staphylococcus aureus
Protocol: as §1

S. aureus USA 300 = experiment: as above; type: cell-based; settings: Staphylococcus aureus
Protocol: as §1

[1] = MIC, read-out: Minimal Inhibitory Concentrations (μM) E. faecails
[2] = MIC, read-out: Minimal Inhibitory Concentrations (μM) MRSA NRS70
[3] = ATCC29213, MIC, read-out: Minimal Inhibitory Concentrations (μM) S. aureus ATCC 29213
[4] = USA300, MIC, read-out: Minimal Inhibitory Concentrations (μM) S. aureus USA 300

T1 sequence (Q2G036 whole entry): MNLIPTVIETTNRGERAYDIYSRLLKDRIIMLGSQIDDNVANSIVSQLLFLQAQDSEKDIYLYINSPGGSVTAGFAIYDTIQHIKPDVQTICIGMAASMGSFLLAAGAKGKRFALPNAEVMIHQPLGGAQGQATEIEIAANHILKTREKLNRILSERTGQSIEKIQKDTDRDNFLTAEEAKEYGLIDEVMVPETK

SMILES	EC50 (S. aureus ClpP (Sa-ClpP)) [nM]	Minimal Inhibitory Concentrations (μM) S. aureus ΔClpP (S. aureus ΔClpP) [µM]	MIC (E. faecails; [1]) [µM]	MIC (MRSA NRS70; [2]) [µM]	MIC (S. aureus ATCC 29213; [3]) [µM]	MIC (S. aureus USA 300; [4]) [µM]	MIC (E. faecails; read-out: Minimal Inhibitory Concentrations (μM) E. faecails, MIC) [µM]	MIC (MRSA NRS70; read-out: Minimal Inhibitory Concentrations (μM) MRSA NRS70, MIC) [µM]	MIC (S. aureus ATCC 29213; ATCC29213, read-out: Minimal Inhibitory Concentrations (μM) S. aureus ATCC 29213, MIC) [µM]	MIC (S. aureus USA 300; USA300, read-out: Minimal Inhibitory Concentrations (μM) S. aureus USA 300, MIC) [µM]
Cc1cccc(C[C@H](NC(=O)Nc2ccc(Cl)c(F)c2)C(=O)N[C@@H]2C(=O)N3C[C@H](O)C[C@H]3C(=O)N3CCCC[C@H]3C(=O)N[C@@H](C)C(=O)N3C[C@@H](C)C[C@H]3C(=O)O[C@H]2C)c1 [Compound 77, (S)-2-(3-(4-CHLORO-3-FLUOROPHENYL)UREIDO)-N-((2S,6S,8AS,14AS,16R,20S,21S,23AS)-16-HYDROXY-2,6,21-TRIMETHYL-5,8,14,19,23-PENTAOXOOCTADECAHYDRO-1H,5H,14H,19H-PYRIDO[2,1-I]DIPYRROLO[2,1-C:2′,1′-L][1]OXA[4,7,10,13]TETRAAZACYCLOHEXADECIN-20-YL)-3-(M-TOLYL)PROPANAMIDE] ({X2-CO}-[Phe(3-Me)][aThr][Hyp][Pip]A[Pro(4S-Me)]; ester 2-C)	450 ± 200	5	1.25 (≈ 1.05 µg/mL)	0.625 (≈ 0.525 µg/mL)	0.625 (≈ 0.525 µg/mL)	1.25 (≈ 1.05 µg/mL)				
CCc1ccc(NC(=O)N[C@@H](Cc2cccc(C)c2)C(=O)N[C@H]2COC(=O)[C@@H]3C[C@@H](C)CN3C(=O)[C@H](C)NC(=O)[C@@H]3CCCCN3C(=O)[C@@H]3CCCN3C2=O)cc1 [Compound 70, (S)—N-((2R,6S,8AS,14AS,20S,23AS)-2,6-DIMETHYL-5,8,14,19,23-PENTAOXOOCTADECAHYDRO-1H,5H,14H,19H-PYRIDO[2,1-I]DIPYRROLO[2,1-C:2′,1′-L][1]OXA[4,7,10,13]TETRAAZACYCLOHEXADECIN-20-YL)-2-(3-(4-ETHYLPHENYL)UREIDO)-3-(M-TOLYL)PROPANAMIDE]	290 ± 100	>20	0.156 (≈ 0.123 µg/mL)	0.313 (≈ 0.246 µg/mL)	0.625 (≈ 0.491 µg/mL)	0.313 (≈ 0.246 µg/mL)				
Cc1cccc(C[C@H](NC(=O)Nc2cccc(Cl)c2)C(=O)N[C@@H]2C(=O)N3C[C@H](O)C[C@H]3C(=O)N3CCCC[C@H]3C(=O)N[C@@H](C)C(=O)N3C[C@H](C)C[C@H]3C(=O)O[C@H]2C)c1 [Compound 62, (S)-2-(3-(3-CHLOROPHENYL)UREIDO)-N-((2R,6S,8AS,14AS,16R,20S,21S,23AS)-16-HYDROXY-2,6,21-TRIMETHYL-5,8,14,19,23-PENTAOXOOCTADECAHYDRO-1H,5H,14H,19H-PYRIDO[2,1-I]DIPYRROLO[2,1-C:2′,1′-L][1]OXA[4,7,10,13]TETRAAZACYCLOHEXADECIN-20-YL)-3-(M-TOLYL)PROPANAMIDE] ({NH(3-Cl-phenyl)-CO}-[Phe(3-Me)][aThr][Hyp][Pip]A[Pro(4R-Me)]; ester 2-C)	420 ± 100	>20					2.5 (≈ 2.06 µg/mL)	0.625 (≈ 0.514 µg/mL)	1.25 (≈ 1.03 µg/mL)	0.625 (≈ 0.514 µg/mL)

Source: patent US10570179B2, “Substituted urea depsipeptide analogs as activators of the CLPP endopeptidase” (priority 2016, dated 2020)
